Literature values as cited in PMC11938273 (Journal of Chemical Information and Modeling, 2025).

Settings: in vivo; cited from earlier work

Row | Molecule | CNS status
1 | CC[C@]1(O)C[C@H]2CN(CCc3c([nH]c4ccccc34)[C@@](C(=O)OC)(c3cc4c(cc3OC)N(C=O)[C@H]3[C@@](O)(C(=O)OC)[C@H](OC(C)=O)[C@]5(CC)C=CCN6CC[C@]43[C@@H]65)C2)C1 [Vincristine, (3aR,3a1R,4R,5S,5aR,10bR)-Methyl 4-acetoxy-3a-ethyl-9-((5S,7S,9S)-5-ethyl-5-hydroxy-9-(methoxycarbonyl)-2,4,5,6,7,8,9,10-octahydro-1 H-3,7-methano[1]azacycloundecino[5,4-b]indol-9-yl)-6-formyl-5-hydroxy-8-methoxy3a,3a1,4,5,5a,6,11,12-octahydro-1 H-indolizino[8,1-cd]carbazole-5-carboxylate] | Efflux transporter substrate
2 | CN(C)C(=O)Oc1cccc([N+](C)(C)C)c1 [Neostigmine, 3-[(Dimethylcarbamoyl)oxy]-N,N,N-trimethylanilinium] | Negative
3 | Cc1nccn1CC1CCc2c(c3ccccc3n2C)C1=O (stereo not shown) [Ondansetron, 9-Methyl-3-[(2-methyl-1H-imidazol-1-yl)methyl]-1,2,3,9-tetrahydro-4H-carbazol-4-one] | Efflux transporter substrate
4 | Cc1ccc(C(=O)c2cc(O)c(O)c([N+](=O)[O-])c2)cc1 [Tolcapone, (3,4-dihydroxy-5-nitrophenyl)(p-tolyl)methanone] | Negative
5 | Teicoplanin | Negative
6 | COC(=O)[C@H](c1ccccc1)[C@H]1CCCCN1 (racemic) [Ritalin, rac-methyl (R)-2-phenyl-2-((R)-piperidin-2-yl)acetate] | Positive
7 | Fc1ncccc1OCC1C=CCN1 (stereo not shown) [Nifene, 3-((2,5-dihydro-1H-pyrrol-2-yl)methoxy)-2-fluoropyridine] | Positive
8 | CCC1=C(C)CN(C(=O)NCCc2ccc(S(=O)(=O)NC(=O)N[C@H]3CC[C@H](C)CC3)cc2)C1=O [Glimepiride, 3-Ethyl-4-methyl-N-[2-(4-{[(trans-4-methylcyclohexyl)carbamoyl]sulfamoyl}phenyl)ethyl]-2-oxo-2,5-dihydro-1H-pyrrole-1-carboxamide] | Negative
9 | Cc1ccc([C@H]2C[C@@H]3CC[C@H]([C@H]2C(=O)OCCF)N3C/C=C/I)cc1 [FE-PE2i, 2-fluoroethyl (1R,2S,3S,5S)-8-((E)-3-iodoallyl)-3-(p-tolyl)-8-azabicyclo[3.2.1]octane-2-carboxylate] | Positive
10 | CC[C@]1(O)C[C@@H]2CN(CCc3c([nH]c4ccccc34)[C@@](C(=O)OC)(c3cc4c(cc3OC)N(C)[C@H]3[C@@](O)(C(=O)OC)[C@H](OC(C)=O)[C@]5(CC)C=CCN6CC[C@]43[C@@H]65)C2)C1 [Vinblastine, Dimethyl (2β,3β,4β,5α,12β,19α)-15-[(5S,9S)-5-ethyl-5-hydroxy-9-(methoxycarbonyl)-1,4,5,6,7,8,9,10-octahydro-2 H-3,7-methanoazacycloundecino [5,4-b]indol-9-yl]-3-hydroxy-16-methoxy-1-methyl-6,7-didehydroaspidospermidine3,4-dicarboxylate] | Efflux transporter substrate
11 | CCOc1nc2cccc(C(=O)O)c2n1Cc1ccc(-c2ccccc2-c2nnn[nH]2)cc1 [Candesartan, 1-((2'-(2H-tetrazol-5-yl)-[1,1'-biphenyl]-4-yl)methyl)-2-ethoxy-1H-benzo[d]imidazole-7-carboxylic acid] | Negative
12 | CN1[C@H]2CC[C@@H]1[C@@H](c1cc(-c3ccccc3)no1)[C@@H](c1ccc(Cl)cc1)C2 [beta-CPPIT, 5-((1R,2S,3S,5S)-3-(4-chlorophenyl)-8-methyl-8-azabicyclo[3.2.1]octan-2-yl)-3-phenylisoxazole] | Positive
13 | CCN1CCC[C@H]1CNC(=O)c1cc(I)cc(OC)c1OC [Epidepride, (S)-N-((1-ethylpyrrolidin-2-yl)methyl)-5-iodo-2,3-dimethoxybenzamide] | Positive
14 | CN/C(=N/CCSCc1nc[nH]c1C)NC#N [Cimetidine, 1-Cyano-2-methyl-3-(2-{[(4-methyl-1H-imidazol5-yl)methyl]sulfanyl}ethyl)guanidine] | Efflux transporter substrate
15 | CCN(CC)C(=O)/C(C#N)=C/c1cc(O)c(O)c([N+](=O)[O-])c1 [Entacapone, (2E)-2-Cyano-3-(3,4-dihydroxy-5-nitrophenyl)-N,N-diethylacrylamide] | Negative
16 | COc1ccccc1N1CCN(CCN(C(=O)C2CCCCC2)c2ccccn2)CC1 [WAY-100635, N-(2-(4-(2-methoxyphenyl)piperazin-1-yl)ethyl)-N-(pyridin-2-yl)] | Positive
17 | CNc1ccc(-c2nc3ccc(O)cc3s2)cc1 [6-meO-BTA-0, 2-(4-(Methylamino)phenyl)benzo[d]thiazol-6-ol] | Negative
18 | COC(=O)[C@H]1[C@@H](c2ccc(I)cc2)C[C@@H]2CC[C@H]1N2C/C=C/I [IPCIT, (1R,2S,3S,5S)-methyl 8-((E)-3-iodoallyl)-3-(4-iodophenyl)-8-azabicyclo[3.2.1]octane-2-carboxylate] | Positive
19 | C[C@@H](CN1CC(=O)NC(=O)C1)N1CC(=O)NC(=O)C1 (racemic) [Dexrazoxane, rac-(R)-4,4'-(propane-1,2-diyl)bis(piperazine-2,6-dione)] | Negative
20 | CC(C)NCC(O)c1ccc(NS(C)(=O)=O)cc1 (stereo not shown) [Sotalol, N-{4-[1-Hydroxy-2-(isopropylamino)ethyl]phenyl}methanesulfonamide] | Negative
21 | C[C@@](Cc1ccc(O)c(O)c1)(NN)C(=O)O [Carbidopa, (2S)-3-(3,4-Dihydroxyphenyl)-2-hydrazino-2-methylpropanoic acid] | Negative
22 | CCC(C)N(C)C(=O)c1cc2ccccc2c(-c2ccccc2Cl)n1 (stereo not shown) [PK11195, N-(sec-butyl)-1-(2-chlorophenyl)-N-methylisoquinoline3-carboxamide] | Positive
23 | Cn1c2c(c3ccccc31)C[C@@]1(O)C3Cc4ccc(O)c5c4C1(CCN3CC1CC1)[C@H]2O5 (stereo partly drawn) [N-Methylnaltrinidole, (8aS,14bR)-7-(cyclopropylmethyl)-14-methyl-5,6,7,8,8a,9,14, 14b-octahydro-4,8-methanobenzofuro[2,3-a]pyrido [4,3-b]carbazole-1,8a-diol] | Positive
24 | O=[N+]([O-])c1nccn1CC(O)CF (stereo not shown) [Fluoromisonidazole (FMISO), 1-Fluoro-3-(2-nitro-1H-imidazol-1-yl)propan-2-ol] | Positive
25 | CCC(=O)OC1CCNCC1 [PMP, piperidin-4-yl propionate] | Positive
26 | O=C(c1ccc(F)cc1)C1CCN(CCn2c(=S)[nH]c3ccccc3c2=O)CC1 [Altanserin, 3-[2-[4-(4-fluorobenzoyl)piperidin-1-yl]ethyl]-2-sulfanylidene-1H-quinazolin-4-one] | Positive
27 | CC(C)NCC(O)COc1cccc2[nH]c3ccccc3c12 (stereo not shown) [Carazolol, 1-((9H-carbazol-4-yl)oxy)-3-(isopropylamino)propan-2-ol] | Positive
28 | COc1cccc2c1C(=O)c1c(O)c3c(c(O)c1C2=O)C[C@@](O)(C(=O)CO)C[C@@H]3O[C@H]1C[C@H](N)[C@H](O)[C@H](C)O1 [Doxorubicin, (1S,3S)-3-Glycoloyl-3,5,12-trihydroxy-10-methoxy-6,11-dioxo-1,2,3,4,6,11-hexahydro-1-tetracenyl 3-amino-2,3,6-trideoxy-α-L-lyxo-hexopyranoside] | Efflux transporter substrate
